Data taken from PMC2120418 (The Journal of Cell Biology, 1995).

Assays:
[1] = test system: dispersed rat pancreatic acini; settings: core peptide for the probes; cited from earlier work
[2] = test system: rat CCK-A receptors on CHO-CCKR cells; assay: Indirect immunofluorescence of surface CCK receptor after agonist occupation; type: cell-based, rat receptor in CHO cells; settings: 10 nM CCK-8, 30 min, 37C

Substance	Biological activity of core peptide [1]	Surface immunolabeling of the receptor, level relative to control cells [2] [%]
GIy-[(NIe2S.31)CCK26-33]	fully biologically active	
CCK-8: native cholecystokinin hormone, nonfluorescent agonist		49
